Results taken from PMC12575627 (Nature Communications, 2025).

What was measured:
Experiment in all cases: […]CABP radioligand binding
Format in all cases: biochemical
Conditions in all cases: labelled compound, E. coli soluble protein
[1] = target: T1, Rr^cL2 (Rhodospirillum rubrum, UniProt P04718)
T1 sequence (P04718 1-466): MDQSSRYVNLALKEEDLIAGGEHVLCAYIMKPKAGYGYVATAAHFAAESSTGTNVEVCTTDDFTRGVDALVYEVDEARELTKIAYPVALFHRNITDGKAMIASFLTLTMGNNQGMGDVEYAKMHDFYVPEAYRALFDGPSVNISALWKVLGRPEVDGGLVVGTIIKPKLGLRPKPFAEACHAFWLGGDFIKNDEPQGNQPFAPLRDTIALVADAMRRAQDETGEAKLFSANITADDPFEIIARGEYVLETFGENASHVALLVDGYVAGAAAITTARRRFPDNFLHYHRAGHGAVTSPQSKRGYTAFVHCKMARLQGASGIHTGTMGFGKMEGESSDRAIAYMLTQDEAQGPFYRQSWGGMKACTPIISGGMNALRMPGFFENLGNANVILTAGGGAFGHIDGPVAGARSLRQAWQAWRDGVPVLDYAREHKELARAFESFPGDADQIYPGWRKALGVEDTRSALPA

[2] = target: T2, RrRubisco (RrL2) (Rhodospirillum rubrum, UniProt P04718)
T2 sequence (P04718 1-466): T1 sequence (P04718 1-466)

[3] = target: T3, RrL^c2 (Rhodospirillum rubrum, UniProt P04718)
T3 sequence (P04718 1-466): T1 sequence (P04718 1-466)

Compound: O=C(O)[C@@](O)(COP(=O)(O)O)[C@H](O)[C@H](O)COP(=O)(O)O [14CABP]
- 14CABP radioligand binding (active-site quantification) [1]: CLP tagging to RbcL was found to have no measurable impact on RrRubisco formation
- 14CABP radioligand binding (active-site quantification) [2]: CLP tagging to RbcL was found to have no measurable impact on RrRubisco formation
- 14CABP radioligand binding (active-site quantification) [3]: CLP tagging to RbcL was found to have no measurable impact on RrRubisco formation
